# Results as given in patent US20190008870A1, “COMPOSITIONS AND METHODS FOR LIPID METABOLISM DISORDER” (JANSFAT BIOTECHNOLOGY CO., LTD., priority 2016, published 2019).
# Key:
# PPARγ [1] = test: PPARγ expression in HepG2 cells; type: cell-based; conditions: for PPARγ expression: 10^−5 M, 24 hours, Control 100, Vehicle 260
# Method: The HepG2 hepatoma cell line was purchased from the American Type Culture Collection (ATCC, Manassas, Va., U.S.A.). Cells were cultured in Dulbecco's Modified Eagle's Medium (DMEM). […] Then the targeted drugs solution was incubated with the cells for 24 hours, followed by protein extraction. […] HepG2 cells were treated with various concentrations of targeted drugs for 24 hours. Reactions were terminated by washing twice with cold PBS, and the cells were then harvested. Proteins in the whole-cell lysate were homogenized in an ice-cold lysis buffer and a protease inhibitor (Sigma-Aldrich, St. Louis, Mo., U.S.A.). The homogenate was centrifuged at 90,000×g for 15 minutes at 4° C., and supernatant was recovered as the total cellular protein. Cytosolic and membrane fractions of HepG2 cells were prepared using a CNM (Cytosol Nuclear Membrane) compartmental protein extraction kit (BioChain Institute Inc., Hayward, Calif., U.S.A.) according to the manufacturer's instructions. All of the fractionated protein solutions were stored at −80° C. until analysis. To measure the expression levels of proteins by drugs, the total cell protein was extracted after incubation with treatments for 24 hours and then Western blotting analysis was performed as described previously.
# HMG CoA reductase [2] = test: HMG CoA reductase expression in HepG2 cells (Western blotting); type: cell-based; conditions: for HMGR (%): 24 hours, CTL 100; for HMG CoA expression: Mevalonate (100 μM) + drug (10^−5 M), Control 100
# Method: The HepG2 hepatoma cell line was purchased from the American Type Culture Collection (ATCC, Manassas, Va., U.S.A.). Cells were cultured in Dulbecco's Modified Eagle's Medium (DMEM). The culture media was supplemented with 5% heat-inactivated FBS, penicillin (100 U/mL) and streptomycin (100 μg/mL). Cells were grown in a humidified atmosphere containing 5% CO2 at 37° C., in which the oxygen tension in the incubator was held at 140 mmHg (20% O2, v/v; normoxic conditions). […] Then the targeted drugs solution was incubated with the cells for 24 hours, followed by protein extraction. The targeted drugs were added to the […].
# HepG2 cells were treated with various concentrations of targeted drugs for 24 hours. Reactions were terminated by washing twice with cold PBS, and the cells were then harvested. Proteins in the whole-cell lysate were homogenized in an ice-cold lysis buffer and a protease inhibitor (Sigma-Aldrich, St. Louis, Mo., U.S.A.). The homogenate was centrifuged at 90,000×g for 15 minutes at 4° C., and supernatant was recovered as the total cellular protein. Cytosolic and membrane fractions of HepG2 cells were prepared using a CNM (Cytosol Nuclear Membrane) compartmental protein extraction kit (BioChain Institute Inc., Hayward, Calif., U.S.A.) according to the manufacturer's instructions. All of the fractionated protein solutions were stored at −80° C. until analysis. To measure the expression levels of proteins by drugs, the total cell protein was extracted after incubation with treatments for 24 hours and then Western blotting analysis was performed as described previously.
# ABCA1 = test: HFD-induced ABCA1 expression in liver; type: in vivo, mice
# HMG CoA reductase [3] = test: HFD-induced HMG CoA reductase expression in liver; type: in vivo, mice
# Method: (§1) In the experiment, C57BL/6J male mice (21-22 g), after fasting, were fed an HFD as a model of hyperlipidemia for 8 weeks. During the 2 month experiments, mice fasted for one night before the experiment was changed from a standard diet (STD) to an HFD and then the mice were randomly divided into 13 groups, including a protection group, 2 control and 10 treatment groups. Six mice were used in each group. […] Liver from the protection group supplemented with KMUP-1 HCl (1 mg/kg/day) were used to determine the HMG CoA reductase expression. Each group of mice had free access to drinking water from week 1 to week 14. Tap water was used to normalize mineral nutrition.
# (§2) For the expression of SR-B1, HMGR, PPARγ and ROCK II, isolated liver tissues were cut into small chips and placed into an extraction buffer (Tris 10 mM, pH 7.0, NaCl 140 mM, PMSF 2 mM, DTT 5 mM, NP-40 0.5%, pepstatin A 0.05 mM and leupeptin 0.2 mM) for hepatic protein extraction, and centrifuged at 20,000×g for 30 minutes. The obtained protein extract was boiled to a ratio of 4:1 with a sample buffer (Tris 100 mM, pH 6.8, glycerol 20%, SDS 4% and bromophenol blue 0.2%). Electrophoresis was performed using 10% SDS-polyacrylamide gel (1 hour, 100 V, 40 mA, 20 μg protein per lane).
# (§3) Separated proteins, after 3 repeated centrifugations to discard up-layer tissue lipid in purity, were transferred to PVDF membranes treated with 5% fat-free milk powder to block the nonspecific IgGs (90 minutes, 100 V) and incubated for 1 hour with specific protein antibody. The blot was then incubated with anti-mouse or anti-goat IgG linked to alkaline phosphatase (1:1000) for 1 hour.
# PPARγ [4] = test: HFD-induced PPARγ expression in liver; type: in vivo, mice
# Method: as §1, §2, §3
# [5] = HepG2 cells, GGPP (10 μM) + drug 10^−5 M
# [6] = HepG2 cells, GGPP (10 μM) + drug 10^−6 M
# [7] = HepG2 cells, GGPP (10 μM) + drug 10^−7 M
# [8] = HepG2 cells, GGPP (10 μM) + drug 10^−8 M
# [9] = HepG2 cells, GGPP (10 μM) + drug 10^−9 M
# [10] = Simva 5 mg/kg, CTL 100 (Table 9)
structure (smiles),measurement,setting,value
"CCC(C)(C)C(=O)O[C@H]1C[C@@H](C)C=C2C=C[C@H](C)[C@H](CC[C@@H]3C[C@@H](O)CC(=O)O3)[C@H]21 [Simva, Simvastatin, reference compound]",PPARγ expression,PPARγ [1]; HepG2 cells,350
same,PPARγ,PPARγ [1]; [5],46%
same,PPARγ,PPARγ [1]; [6],46%
same,PPARγ,PPARγ [1]; [7],44%
same,PPARγ,PPARγ [1]; [8],40%
same,PPARγ,PPARγ [1]; [9],46%
same,HMGR (%),HMG CoA reductase [2]; 10^−5 M,280%
same,HMGR (%),HMG CoA reductase [2]; 10^−8 M,152%
same,HMGR (%),HMG CoA reductase [2]; 10^−9 M,150%
same,HMG CoA expression,HMG CoA reductase [2],50%
same,ABCA1,ABCA1; [10],100%
same,HMGR,HMG CoA reductase [3]; [10],100%
same,PPARγ,PPARγ [4]; [10],280%
"Cn1c(=O)c2c(ncn2CCN2CCN(c3ccccc3Cl)CC2)n(C)c1=O [KMUP-1, 7-[2-[4-(2-chlorophenyl)piperazinyl]ethyl]-1,3-dimethylxanthine]",expression of PPARγ,"PPARγ [1]; HepG2, 10^−9-10^−5 M",increased
same,increase of PPARγ,PPARγ [1]; HepG2 cells,2-3 folds
same,PPARγ expression,PPARγ [1]; HepG2 cells,595
same,PPARγ,"PPARγ [1]; HepG2 cells, FPP (10 μM) + drug 10^−5 M",138%
same,PPARγ,"PPARγ [1]; HepG2 cells, FPP (10 μM) + drug 10^−6 M",140%
same,PPARγ,"PPARγ [1]; HepG2 cells, FPP (10 μM) + drug 10^−7 M",142%
same,PPARγ,"PPARγ [1]; HepG2 cells, FPP (10 μM) + drug 10^−8 M",84%
same,PPARγ,"PPARγ [1]; HepG2 cells, FPP (10 μM) + drug 10^−9 M",72%
same,PPARγ,PPARγ [1]; [5],120%
same,PPARγ,PPARγ [1]; [6],106%
same,PPARγ,PPARγ [1]; [7],108%
same,PPARγ,PPARγ [1]; [8],90%
same,PPARγ,PPARγ [1]; [9],78%
same,HMGR (%),HMG CoA reductase [2]; 10^−5 M,270%
same,HMGR (%),HMG CoA reductase [2]; 10^−6 M,220%
same,HMGR (%),HMG CoA reductase [2]; 10^−7 M,210%
same,HMGR (%),HMG CoA reductase [2]; 10^−8 M,125%
same,HMGR (%),HMG CoA reductase [2]; 10^−9 M,120%
same,HMG CoA expression,HMG CoA reductase [2],62%
same,ABCA1,"ABCA1; HFD mice, 1 mg/kg, CTL 100",98%
same,ABCA1,"ABCA1; HFD mice, 2.5 mg/kg, CTL 100",190%
same,ABCA1,"ABCA1; HFD mice, 5 mg/kg, CTL 100",200%
same,HMGR,"HMG CoA reductase [3]; HFD mice, 1 mg/kg, CTL 100",43%
same,HMGR,"HMG CoA reductase [3]; HFD mice, 2.5 mg/kg, CTL 100",150%
same,HMGR,"HMG CoA reductase [3]; HFD mice, 5 mg/kg, CTL 100",140%
same,PPARγ,"PPARγ [4]; HFD mice, 1 mg/kg, CTL 100",53%
same,PPARγ,"PPARγ [4]; HFD mice, 2.5 mg/kg, CTL 100",249%
same,PPARγ,"PPARγ [4]; HFD mice, 5 mg/kg, CTL 100",245%
